Data: patent publication US11324729B2, “NSD family inhibitors and methods of treatment therewith” (The Regents of the University of Michigan, priority 2017, dated 2022)
Like-named read-outs stand apart in the source and are kept apart here.

Tests used:
NSD1 [1] = target: T1, NSD1 (Homo sapiens, UniProt Q96L73); experiment: Mass spectrometry detection of covalent/irreversible binding to NSD1
T1 construct: 6 μM of 159 was incubated with 1 mM of NSD1 SET domain for 8 hours
T1 sequence (Q96L73 1852-2082 limits assumed): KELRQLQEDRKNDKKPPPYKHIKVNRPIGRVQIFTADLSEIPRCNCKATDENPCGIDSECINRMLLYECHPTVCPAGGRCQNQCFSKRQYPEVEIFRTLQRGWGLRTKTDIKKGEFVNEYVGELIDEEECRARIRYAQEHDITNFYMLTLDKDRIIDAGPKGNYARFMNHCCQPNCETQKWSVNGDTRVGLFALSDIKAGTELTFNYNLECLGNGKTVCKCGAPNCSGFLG
Method: (§1) 10 μM 151 was incubated with NSD1 for 20 h. B. HSQC spectrum of 150 μM NSD1 with 300 μM 151.
6 μM of 159 was incubated with 1 mM of NSD1 SET domain for 8 hours.
FIG. 7. […] Asterisk denotes covalent protein adduct with 198.

[2] = target: T2, NSD1 (1753-2095 fragment) (Homo sapiens, UniProt Q96L73); experiment: CETSA assay in HeLa cells; assay type: cell-based; conditions: HeLa cells treated with 5 μM compound
T2 construct: expressed in transfected cells; host or cells: HeLa cells
T2 sequence (Q96L73 1753-2095): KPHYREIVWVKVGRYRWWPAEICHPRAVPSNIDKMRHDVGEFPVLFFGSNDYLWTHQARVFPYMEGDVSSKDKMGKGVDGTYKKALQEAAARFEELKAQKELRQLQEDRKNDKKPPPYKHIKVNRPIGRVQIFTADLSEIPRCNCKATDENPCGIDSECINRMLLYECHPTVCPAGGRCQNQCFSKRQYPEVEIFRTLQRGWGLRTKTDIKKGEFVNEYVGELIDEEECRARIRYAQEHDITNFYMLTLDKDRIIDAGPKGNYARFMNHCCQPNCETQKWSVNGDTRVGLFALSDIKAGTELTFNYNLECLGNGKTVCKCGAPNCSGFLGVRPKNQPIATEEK

Nup98-NSD1 cells [3] = experiment: MTT growth inhibition assay, Nup98-NSD1 cells; assay type: cell-based; conditions: 3, 7 and 10 days
HM-2 cells = experiment: MTT proliferation assay, control HM-2 cells; assay type: cell-based
Nup98-NSD1 cells [4] = experiment: Cytospins, differentiation of Nup98-NSD1 cells; assay type: cell-based
[5] = system: Nup98-NSD1 subcutaneous model; experiment: Nup98-NSD1 subcutaneous leukemia model in mice; assay type: in vivo; conditions: 25 mg/kg q.d., I.P.
Method: FIG. 6A-F. Pharmacokinetics and efficacy of 159 in Nup98-NSD1 leukemia model. A. Pharmacokinetics studies in mice treated with 25 mg/kg of 159 using I.P. administration. B. Efficacy in Nup98-NSD1 subcutaneous model. Mice were treated with 25 mg/kg q.d., I.P. C. Representative tumors from vehicle and 159 treated mice. […] E. Immuno-histochemistry analysis of H3K36me2 level in tumor samples of mice treated with vehicle (top) and 159 (bottom). […] F. Body weight of 159 treated animals.

NSD1 [6] = target: NSD1 (Homo sapiens, UniProt Q96L73); experiment: HSQC NMR spectrum of NSD1 with compound; assay type: binding; conditions: 150 μM NSD1 with 300 μM compound; including Cys2062
Method: as §1
Target sequence in this assay (Q96L73 whole entry, the tested form may be a part): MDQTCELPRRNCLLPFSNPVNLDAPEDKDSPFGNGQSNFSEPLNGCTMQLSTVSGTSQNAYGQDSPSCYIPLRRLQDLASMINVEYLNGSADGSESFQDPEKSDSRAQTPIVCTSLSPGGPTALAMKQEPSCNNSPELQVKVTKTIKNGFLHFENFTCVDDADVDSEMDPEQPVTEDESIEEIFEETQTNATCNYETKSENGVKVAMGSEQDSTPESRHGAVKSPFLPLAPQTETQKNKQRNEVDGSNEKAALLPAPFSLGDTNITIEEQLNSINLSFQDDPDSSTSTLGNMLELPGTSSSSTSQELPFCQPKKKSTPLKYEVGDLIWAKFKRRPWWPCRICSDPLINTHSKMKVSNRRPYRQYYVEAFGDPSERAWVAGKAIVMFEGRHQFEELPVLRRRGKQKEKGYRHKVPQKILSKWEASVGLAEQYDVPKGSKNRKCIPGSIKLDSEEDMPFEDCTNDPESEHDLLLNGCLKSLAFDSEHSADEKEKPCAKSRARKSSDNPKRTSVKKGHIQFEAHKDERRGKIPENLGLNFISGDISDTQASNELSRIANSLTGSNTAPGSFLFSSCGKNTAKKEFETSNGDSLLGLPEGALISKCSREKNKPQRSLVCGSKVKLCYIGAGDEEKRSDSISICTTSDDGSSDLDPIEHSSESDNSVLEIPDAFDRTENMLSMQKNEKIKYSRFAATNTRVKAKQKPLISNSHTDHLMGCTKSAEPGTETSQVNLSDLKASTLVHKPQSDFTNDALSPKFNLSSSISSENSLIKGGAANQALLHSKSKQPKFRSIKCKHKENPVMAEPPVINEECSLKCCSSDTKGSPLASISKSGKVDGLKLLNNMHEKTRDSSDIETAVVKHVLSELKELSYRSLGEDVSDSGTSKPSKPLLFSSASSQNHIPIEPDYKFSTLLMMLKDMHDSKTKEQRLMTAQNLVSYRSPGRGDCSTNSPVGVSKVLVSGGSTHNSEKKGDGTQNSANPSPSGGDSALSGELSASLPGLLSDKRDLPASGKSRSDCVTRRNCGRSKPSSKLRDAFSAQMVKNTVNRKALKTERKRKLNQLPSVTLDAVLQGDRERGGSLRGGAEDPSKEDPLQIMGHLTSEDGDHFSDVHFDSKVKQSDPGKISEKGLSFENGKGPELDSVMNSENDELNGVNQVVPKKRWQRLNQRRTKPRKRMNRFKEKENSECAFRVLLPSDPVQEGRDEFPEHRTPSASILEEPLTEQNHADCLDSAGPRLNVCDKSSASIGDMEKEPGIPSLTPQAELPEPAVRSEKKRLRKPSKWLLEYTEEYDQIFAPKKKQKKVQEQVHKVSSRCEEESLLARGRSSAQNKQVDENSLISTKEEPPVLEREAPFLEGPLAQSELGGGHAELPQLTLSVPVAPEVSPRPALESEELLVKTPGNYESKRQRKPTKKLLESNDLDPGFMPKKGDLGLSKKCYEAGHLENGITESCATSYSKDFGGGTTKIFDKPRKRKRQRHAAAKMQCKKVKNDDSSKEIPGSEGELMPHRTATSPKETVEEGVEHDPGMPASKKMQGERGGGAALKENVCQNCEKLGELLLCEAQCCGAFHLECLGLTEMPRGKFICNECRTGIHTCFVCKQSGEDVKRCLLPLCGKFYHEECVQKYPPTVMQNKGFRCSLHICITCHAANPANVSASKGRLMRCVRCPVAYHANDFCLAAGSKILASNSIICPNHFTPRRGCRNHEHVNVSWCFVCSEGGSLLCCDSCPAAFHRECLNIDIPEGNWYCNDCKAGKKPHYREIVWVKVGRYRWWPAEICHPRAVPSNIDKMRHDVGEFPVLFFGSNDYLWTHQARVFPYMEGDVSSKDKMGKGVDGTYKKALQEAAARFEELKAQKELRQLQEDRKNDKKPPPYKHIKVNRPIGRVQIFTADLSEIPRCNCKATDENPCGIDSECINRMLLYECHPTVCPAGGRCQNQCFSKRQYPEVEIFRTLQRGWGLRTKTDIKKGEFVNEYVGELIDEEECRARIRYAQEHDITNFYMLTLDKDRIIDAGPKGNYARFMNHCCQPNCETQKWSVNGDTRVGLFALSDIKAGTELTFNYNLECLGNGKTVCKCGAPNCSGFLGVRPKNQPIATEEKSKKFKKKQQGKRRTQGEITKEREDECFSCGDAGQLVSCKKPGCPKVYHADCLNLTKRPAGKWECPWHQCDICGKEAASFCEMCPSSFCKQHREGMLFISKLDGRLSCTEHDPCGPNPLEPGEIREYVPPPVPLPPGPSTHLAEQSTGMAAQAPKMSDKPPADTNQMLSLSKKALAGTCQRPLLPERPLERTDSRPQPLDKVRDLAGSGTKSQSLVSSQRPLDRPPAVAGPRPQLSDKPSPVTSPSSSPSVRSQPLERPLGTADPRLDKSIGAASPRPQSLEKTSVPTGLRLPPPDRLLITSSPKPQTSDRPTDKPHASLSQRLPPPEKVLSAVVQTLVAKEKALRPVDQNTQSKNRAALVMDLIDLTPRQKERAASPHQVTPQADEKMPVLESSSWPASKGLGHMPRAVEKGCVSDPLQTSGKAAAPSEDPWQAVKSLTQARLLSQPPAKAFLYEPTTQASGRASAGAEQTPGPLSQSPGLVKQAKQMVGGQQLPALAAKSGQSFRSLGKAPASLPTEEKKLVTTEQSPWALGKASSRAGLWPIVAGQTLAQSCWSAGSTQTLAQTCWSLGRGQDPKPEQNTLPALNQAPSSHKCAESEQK

MCF7 = experiment: MTT viability, 7 days treatment, MCF7; assay type: cell-based; conditions: Homo sapiens, 168 h, MCF7, 7 days treatment
From the text: (§2) FIG. 8. Activity of NSD inhibitors in breast cancer cell lines.

ZR-75-1 = experiment: MTT viability, 7 days treatment, ZR-75-1; assay type: cell-based; conditions: Homo sapiens, 168 h, ZR-75-1, 7 days treatment
From the text: as §2

MDA-MB-468 = experiment: MTT viability, 7 days treatment, MDA-MB-468; assay type: cell-based; conditions: Homo sapiens, 168 h, MDA-MB-468, 7 days treatment
From the text: as §2

SUM44 = experiment: Viability, 7 days treatment, SUM44; assay type: cell-based; conditions: 168 h; SUM44, 7 days treatment
From the text: as §2

Nc1nc2c(O)cc(N3CC3Cc3ccccc3Cl)cc2s1 (stereo not shown) [Compound 159, 2-Amino-6-(2-(2-chlorobenzyl)aziridin-1-yl)benzo[d]thiazol-4-ol]
Covalent engagement of NSD1 by mass spectrometry (NSD1 [1]; 6 μM compound incubated with 1 mM of NSD1 SET domain for 8 hours): binds covalently | CETSA stabilization of NSD1 (1753-2095 fragment) [2]: stabilization of NSD1 | Growth inhibition of Nup98-NSD1 cells (MTT) (Nup98-NSD1 cells [3]): time-dependent (3, 7 and 10 days) growth inhibition | Proliferation of control HM-2 cells (MTT) (HM-2 cells): does not inhibit proliferation | Differentiation of Nup98-NSD1 cells (cytospins) (Nup98-NSD1 cells [4]): differentiation of Nup98-NSD1 cells induced | Expression of Hoxa7 in tumors [5]: reduced expression of Hoxa7 | H3K36me2 level in tumor samples (immuno-histochemistry) [5]: Strong reduction of H3K36me2 level

CC1CN1c1cc(O)c2nc(N)sc2c1 (stereo not shown) [Compound 151]
Irreversible binding to NSD1 detected by MS (NSD1 [1]; 10 μM compound incubated with NSD1 for 20 h): Irreversible binding | HSQC spectrum perturbation of NSD1 residues (NSD1 [6]): Several perturbed residues

C=CS(=O)(=O)NCc1cccc(NCC#Cc2cc(O)c3nc(N)sc3c2)c1Cl [Compound 230]
GI50 (MCF7; read-out: GI50, MTT viability): 1500 nM | GI50 (ZR-75-1; read-out: GI50, MTT viability): 100 nM | GI50 (MDA-MB-468; read-out: GI50, MTT viability): 35 nM

C=CS(=O)(=O)NCc1cccc(NCC#Cc2cc(O)c3nc(N)sc3c2)c1F [Compound 225]
GI50 (MCF7; read-out: GI50, viability): 487 nM | GI50 (ZR-75-1; read-out: GI50, viability): 53 nM | GI50 (MDA-MB-468; read-out: GI50, viability): 31 nM | GI50 (SUM44): 341 nM
